Experimental findings from US20210038607A1, “OXADIAZOLYLTHIOPHENE DERIVATIVES USEFUL AS HISTONE DEACETYLASE INHIBITORS” (Karus Therapeutics Limited, priority 2018, published 2021) are described below.

Experiment [1] concerns the target T1, Human HDAC10 (Homo sapiens, UniProt Q969S8).
T1 construct: Human HDAC10 (a.a. 1-481); GST (N); His (C); host or cells: baculovirus expression system
T1 sequence (Q969S8 1-481): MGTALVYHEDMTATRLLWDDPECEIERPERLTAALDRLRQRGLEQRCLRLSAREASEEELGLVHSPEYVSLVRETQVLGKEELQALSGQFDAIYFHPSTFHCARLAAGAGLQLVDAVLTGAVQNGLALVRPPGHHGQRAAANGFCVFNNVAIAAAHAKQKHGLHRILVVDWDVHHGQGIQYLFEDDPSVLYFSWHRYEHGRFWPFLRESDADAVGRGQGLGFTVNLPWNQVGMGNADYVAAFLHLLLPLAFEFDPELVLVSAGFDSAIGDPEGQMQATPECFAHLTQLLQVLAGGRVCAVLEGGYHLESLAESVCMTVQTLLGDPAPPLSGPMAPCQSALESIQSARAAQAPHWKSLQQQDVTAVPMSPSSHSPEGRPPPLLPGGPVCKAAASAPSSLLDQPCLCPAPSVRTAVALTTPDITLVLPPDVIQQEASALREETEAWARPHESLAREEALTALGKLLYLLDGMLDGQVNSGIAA
In words: HDAC10 biochemical assay, AMC-labeled peptide substrate. The note with it: read-out: HDAC Isoform IC50 (nM) 10. The method, then: (§1) Activity against all zinc-dependent HDACs 1 to 11 was assessed by using an acetylated AMC-labeled peptide substrate. The substrate RHKK(Ac)AMC was used for HDAC1, HDAC2, HDAC3, HDAC6 and HDAC10; the substrate used for HDAC8 was RHK(Ac)K(Ac)AMC. Activity against the class IIa HDACs (HDAC4, 5, 7, 9) and HDAC11 was determined using a class IIa-specific substrate, BOC-Lys(trifluoroacetyl)-AMC (“Trifluoroacetyl Lysine”; see Lahm et al, 2007, PNAS, 104, 17335-17340). All assays were based on the AMC-labeled substrate and developer combination.
(§2) The protocol involved a two-step reaction: first, the substrate with the acetylated lysine side chain is incubated with a sample containing HDAC activity, to produce the deacetylated products, which are then digested in the second step by the addition of developer to produce the fluorescent signal proportional to the amount of deacetylated substrates.
Human HDAC10 (a.a. 1-481), GenBank Accession No. NM_032019 with N-terminal GST tag and C-terminal His tag, MW=78 kDa, expressed in baculovirus expression system.
(§3) Assay Buffer: 50 mM Tris-HCl, pH8.0, 137 mM NaCl, 2.7 mM KCl, 1 mM MgC2. Before use, 1 mg/mL BSA and DMSO are added.
HDAC10: 12 ng/ul HDAC10 and 50 μM HDAC substrate are in the reaction buffer with 1% DMSO final. Incubate for 2 hours at 30° C.
(§4) Stage 1: Deacetylation of substrate by incubation of HDAC enzymes with compounds
(§5) Stage 2: Development by addition of Developer to digest the deacetylated substrate, and generate the fluorescent colour; Detection: 360/460 Ex/Em

Experiment [2] deals with T2, Human HDAC5 (Homo sapiens, UniProt Q9UQL6).
T2 construct: full length with C-terminal His tag, MW=51.1 kDa; His (C); host or cells: baculovirus expression system
The experiment is described as follows: HDAC5 biochemical assay, class IIa-specific substrate. To be noted: read-out: HDAC Isoform IC50 (nM) 5. The procedure, abridged: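 Full-length C-terminal His-tagged HDAC5 from baculovirus (0.05 ng/ul) incubated 30 min at room temperature with 50 μM Boc-Lys(trifluoroacetyl)-AMC and compound, Tris pH 8.0 buffer with BSA, 1% DMSO. Developer then releases AMC; fluorescence 360/460 nm.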

The target of experiment [3] is T3, Human HDAC2 (Homo sapiens, UniProt Q92769).
T3 construct: full length with C-terminal GST-tag; GST (C); host or cells: baculovirus expression system
In words: HDAC2 biochemical assay, AMC-labeled peptide substrate. The note with it: read-out: HDAC Isoform IC50 (nM) 2. On the procedure: as §1, §2
Human HDAC2 (GenBank Accession No. NM_001527), full length with C-terminal GST-tag, MW=82.9 kDa, expressed inbaculovirus expression system.
as §3
HDAC2: 0.07 ng/ul HDAC2 and 50 μM HDAC substrate are in the reaction buffer with 1% DMSO final. Incubate for 1 hour at 30° C.
as §4, §5

Experiment [4] addresses T4, Human HDAC1 (Homo sapiens, UniProt Q13547).
T4 construct: full length with C-terminal His-tag and C-terminal FLAG-tag; His (C); FLAG (C); host or cells: baculovirus expression system
The experiment is described as follows: HDAC1 biochemical assay, AMC-labeled peptide substrate. The note with it: read-out: HDAC Isoform IC50 (nM) 1. The procedure, abridged:
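Baculovirus-expressed full-length human HDAC1 with His and FLAG tags, 0.3 ng/ul, incubated 1 h at 30° C with compound and 50 μM RHKK(Ac)AMC in Tris pH 8.0 buffer with BSA and 1% DMSO. Developer then releases AMC from deacetylated substrate; fluorescence read at 360/460 nm.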

The target of experiment [5] is T5, Human HDAC4 (Homo sapiens, UniProt P56524).
T5 construct: amino acids 627-1085 with N-terminal GST tag; GST (N); host or cells: baculovirus expression system
The experiment is described as follows: HDAC4 biochemical assay, class IIa-specific substrate. To be noted: read-out: HDAC Isoform IC50 (nM) 4. The method, boiled down:
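GST-tagged human HDAC4 (aa 627-1085, baculovirus) at 0.004 ng/ul was incubated 30 min at room temperature with 50 μM class IIa-specific substrate BOC-Lys(trifluoroacetyl)-AMC in Tris-HCl pH 8.0 buffer with BSA, 1% DMSO. Developer then released AMC, read at 360/460 nm.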

Experiment [6] has as its target T6, Human HDAC11 (Homo sapiens, UniProt Q96DB2).
T6 construct: Human HDAC11 (full length); His (N); host or cells: baculovirus expression system
T6 sequence (Q96DB2 1-347): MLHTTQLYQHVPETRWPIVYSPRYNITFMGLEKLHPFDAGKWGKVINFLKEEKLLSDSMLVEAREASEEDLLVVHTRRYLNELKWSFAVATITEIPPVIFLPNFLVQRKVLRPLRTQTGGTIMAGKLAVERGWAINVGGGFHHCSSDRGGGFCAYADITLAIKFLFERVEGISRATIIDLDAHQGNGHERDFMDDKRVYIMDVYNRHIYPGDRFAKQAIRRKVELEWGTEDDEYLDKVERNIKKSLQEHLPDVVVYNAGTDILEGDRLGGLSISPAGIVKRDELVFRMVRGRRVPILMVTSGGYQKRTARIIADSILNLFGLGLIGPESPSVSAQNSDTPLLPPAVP
The experiment is described as follows: HDAC11 biochemical assay, class IIa-specific substrate. The note with it: read-out: HDAC Isoform IC50 (nM) 11. The method, then:
as §1, §2
Human HDAC11 (full length) (GenBank Accession No. NM_024827) with N-terminal His tag, MW=42.9 kDa, expressed in baculovirus expression system.
as §3
HDAC11: 5 ng/ul HDAC11 and 50 μMHDAC substrate are in the reaction buffer with 1% DMSO final. Incubate for 30 minutes at 30° C.
as §4, §5

T5 sequence (P56524 627-1084 limits assumed): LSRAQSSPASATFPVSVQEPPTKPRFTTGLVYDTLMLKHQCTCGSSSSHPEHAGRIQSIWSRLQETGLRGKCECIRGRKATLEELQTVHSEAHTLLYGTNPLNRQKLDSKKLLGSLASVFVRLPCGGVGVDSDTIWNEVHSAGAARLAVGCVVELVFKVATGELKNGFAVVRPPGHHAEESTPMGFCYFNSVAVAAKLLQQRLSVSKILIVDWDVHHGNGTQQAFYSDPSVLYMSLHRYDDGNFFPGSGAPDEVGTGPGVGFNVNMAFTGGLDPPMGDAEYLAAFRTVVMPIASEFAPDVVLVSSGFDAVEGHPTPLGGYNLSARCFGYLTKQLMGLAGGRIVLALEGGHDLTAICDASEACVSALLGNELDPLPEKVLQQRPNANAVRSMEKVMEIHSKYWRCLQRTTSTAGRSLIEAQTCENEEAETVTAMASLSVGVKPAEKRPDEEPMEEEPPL
T2 sequence (Q9UQL6 656-1122 limits assumed): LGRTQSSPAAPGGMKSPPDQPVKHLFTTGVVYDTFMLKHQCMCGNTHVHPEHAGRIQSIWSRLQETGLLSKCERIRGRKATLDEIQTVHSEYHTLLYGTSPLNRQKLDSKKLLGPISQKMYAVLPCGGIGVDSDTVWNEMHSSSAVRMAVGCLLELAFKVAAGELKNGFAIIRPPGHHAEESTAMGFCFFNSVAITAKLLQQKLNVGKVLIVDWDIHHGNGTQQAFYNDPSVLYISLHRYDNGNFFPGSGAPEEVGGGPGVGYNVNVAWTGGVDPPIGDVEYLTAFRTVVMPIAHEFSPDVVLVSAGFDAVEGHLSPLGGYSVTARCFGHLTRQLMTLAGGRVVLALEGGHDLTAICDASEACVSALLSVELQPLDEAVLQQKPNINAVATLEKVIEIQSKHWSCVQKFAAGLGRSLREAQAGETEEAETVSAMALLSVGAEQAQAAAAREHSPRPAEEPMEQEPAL
T3 sequence (Q92769 whole entry): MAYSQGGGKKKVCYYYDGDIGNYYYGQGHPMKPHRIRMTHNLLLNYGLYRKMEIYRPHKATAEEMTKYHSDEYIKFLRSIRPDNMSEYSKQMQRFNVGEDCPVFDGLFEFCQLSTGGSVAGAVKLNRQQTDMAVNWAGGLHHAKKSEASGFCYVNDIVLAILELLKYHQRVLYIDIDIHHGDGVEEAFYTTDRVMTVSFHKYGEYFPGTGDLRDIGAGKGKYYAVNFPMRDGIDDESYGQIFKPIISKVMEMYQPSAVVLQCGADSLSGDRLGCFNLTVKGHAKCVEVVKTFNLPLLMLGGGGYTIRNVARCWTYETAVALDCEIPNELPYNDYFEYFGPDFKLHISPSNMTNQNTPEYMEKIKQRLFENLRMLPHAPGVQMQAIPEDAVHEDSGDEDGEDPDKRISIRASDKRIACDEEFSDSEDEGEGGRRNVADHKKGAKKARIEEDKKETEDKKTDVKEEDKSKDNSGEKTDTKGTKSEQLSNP
T4 sequence (Q13547 whole entry): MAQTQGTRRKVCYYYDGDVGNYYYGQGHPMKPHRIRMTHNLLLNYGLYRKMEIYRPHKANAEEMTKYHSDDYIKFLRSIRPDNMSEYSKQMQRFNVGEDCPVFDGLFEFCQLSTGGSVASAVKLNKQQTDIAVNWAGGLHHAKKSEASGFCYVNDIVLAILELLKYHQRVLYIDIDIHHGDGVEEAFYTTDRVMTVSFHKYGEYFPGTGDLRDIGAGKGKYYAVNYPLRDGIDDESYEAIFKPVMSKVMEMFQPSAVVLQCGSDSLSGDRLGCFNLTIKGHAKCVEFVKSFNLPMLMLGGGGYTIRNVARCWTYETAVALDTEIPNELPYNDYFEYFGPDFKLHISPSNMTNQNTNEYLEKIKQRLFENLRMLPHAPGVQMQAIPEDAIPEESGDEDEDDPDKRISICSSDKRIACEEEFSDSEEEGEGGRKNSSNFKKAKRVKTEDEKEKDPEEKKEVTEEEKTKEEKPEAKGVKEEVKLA

What is called IC50 is the concentration at which inhibition is half-maximal. `O=C(c1cnnc(N(Cc2ccc(-c3noc(C(F)(F)F)n3)s2)c2cnccn2)c1)N1C[C@H]2C[C@@H]1CO2` [Example FW, 5-[(1R,4R)-2-Oxa-5-azabicyclo[2.2.1]heptane-5-carbonyl]-N-(pyrazin-2-yl)-N-({5-[5-(trifluoromethyl)-1,2,4-oxadiazol-3-yl]thiophen-2-yl}methyl)pyridazin-3-amine]: the IC50 is > 10000 nM in experiment [1]; ≤ 1000 nM in experiment [2]; > 10000 nM in experiment [3]; > 10000 nM in experiment [4]; ≤ 10000 nM in experiment [5]; > 10000 nM in experiment [6].

In the case of `O=C(c1cnnc(N(Cc2ccc(-c3noc(C(F)(F)F)n3)s2)c2cnccn2)c1)N1CCC(F)(F)CC1` [Example FY, 5-(4,4-Difluoropiperidine-1-carbonyl)-N-(pyrazin-2-yl)-N-({5-[5-(trifluoromethyl)-1,2,4-oxadiazol-3-yl]thiophen-2-yl}methyl)pyridazin-3-amine], the IC50 in experiment [1] was > 10000 nM; in experiment [2] it was ≤ 1000 nM; in experiment [3] it was > 10000 nM; in experiment [4] it was > 10000 nM; in experiment [5], ≤ 10000 nM; in experiment [6], > 10000 nM.

In the case of `CNC(=O)c1cnnc(N(Cc2ccc(-c3noc(C(F)(F)F)n3)s2)c2cnccn2)c1` [Example DY, N-Methyl-6-[(pyrazin-2-yl)({5-[5-(trifluoromethyl)-1,2,4-oxadiazol-3-yl]thiophen-2-yl}methyl)amino]pyridazine-4-carboxamide], the IC50 in experiment [1] was > 10000 nM; in experiment [2], ≤ 1000 nM; in experiment [3], > 10000 nM; in experiment [4] it was > 10000 nM; in experiment [5], ≤ 1000 nM; in experiment [6], > 10000 nM.

Regarding `O=C(c1cnnc(N(Cc2ccc(-c3noc(C(F)(F)F)n3)s2)c2cnccn2)c1)N1CC(F)(F)C1` [Example FT, 5-(3,3-Difluoroazetidine-1-carbonyl)-N-(pyrazin-2-yl)-N-({5-[5-(trifluoromethyl)-1,2,4-oxadiazol-3-yl]thiophen-2-yl}methyl)pyridazin-3-amine], the IC50 in experiment [1] was > 10000 nM; in experiment [2], ≤ 1000 nM; in experiment [3] it was > 10000 nM; in experiment [4], > 10000 nM; in experiment [5], ≤ 10000 nM; in experiment [6], > 10000 nM.

Regarding `N#Cc1cnnc(N(Cc2ccc(-c3noc(C(F)(F)F)n3)s2)c2cnccn2)c1` [Example EE, 6-[(Pyrazin-2-yl)({5-[5-(trifluoromethyl)-1,2,4-oxadiazol-3-yl]thiophen-2-yl}methyl)amino]pyridazine-4-carbonitrile], the IC50 was > 10000 nM in experiment [1]; ≤ 1000 nM in experiment [2]; > 10000 nM in experiment [3]; > 10000 nM in experiment [4]; ≤ 10000 nM in experiment [5]; > 10000 nM in experiment [6].

Consider `COc1cnc(N(Cc2ccc(-c3noc(C(F)(F)F)n3)s2)c2cnccn2)cn1` [Example BI, 5-Methoxy-N-(pyrazin-2-yl)-N-({5-[5-(trifluoromethyl)-1,2,4-oxadiazol-3-yl]thiophen-2-yl}methyl)pyrazin-2-amine], for which the IC50 in experiment [1] was > 10000 nM; in experiment [2], ≤ 10000 nM; in experiment [3] it was > 10000 nM; in experiment [4] it was > 10000 nM; in experiment [5], ≤ 10000 nM; in experiment [6], > 10000 nM.

As to `Nc1cnnc(N(Cc2ccc(-c3noc(C(F)(F)F)n3)s2)c2cnccn2)c1` [Example FL, N3-(Pyrazin-2-yl)-N3-({5-[5-(trifluoromethyl)-1,2,4-oxadiazol-3-yl]thiophen-2-yl}methyl)pyridazine-3,5-diamine], the IC50 in experiment [1] is > 10000 nM; in experiment [2], ≤ 500 nM; in experiment [3], > 10000 nM; in experiment [4], > 10000 nM; in experiment [5] it was ≤ 500 nM; in experiment [6] it was > 10000 nM.

Regarding `COC1CN(C(=O)c2cnnc(N(Cc3ccc(-c4noc(C(F)(F)F)n4)s3)c3cnccn3)c2)C1` [Example DZ, 5-(3-Methoxyazetidine-1-carbonyl)-N-(pyrazin-2-yl)-N-({5-[5-(trifluoromethyl)-1,2,4-oxadiazol-3-yl]thiophen-2-yl}methyl)pyridazin-3-amine], the IC50 in experiment [1] is > 10000 nM; in experiment [2] it was ≤ 1000 nM; in experiment [3] it was > 10000 nM; in experiment [4] it was > 10000 nM; in experiment [5], ≤ 10000 nM; in experiment [6], > 10000 nM.

On to `O=C(c1cnnc(N(Cc2ccc(-c3noc(C(F)(F)F)n3)s2)c2cnccn2)c1)N1CC2(COC2)C1` [Example FZ, 5-{2-Oxa-6-azaspiro[3.3]heptane-6-carbonyl}-N-(pyrazin-2-yl)-N-({5-[5-(trifluoromethyl)-1,2,4-oxadiazol-3-yl]thiophen-2-yl}methyl)pyridazin-3-amine], for which the IC50 in experiment [1] was > 10000 nM; in experiment [2], ≤ 1000 nM; in experiment [3], > 10000 nM; in experiment [4], > 10000 nM; in experiment [5], ≤ 10000 nM; in experiment [6], > 10000 nM.

On to `FC(F)(F)c1nc(-c2ccc(CN(c3cnccn3)c3cc(N4CCOCC4)cnn3)s2)no1` [Example FP, 5-(Morpholin-4-yl)-N-(pyrazin-2-yl)-N-({5-[5-(trifluoromethyl)-1,2,4-oxadiazol-3-yl]thiophen-2-yl}methyl)pyridazin-3-amine], for which the IC50 was > 10000 nM in experiment [1]; ≤ 500 nM in experiment [2]; > 10000 nM in experiment [3]; > 10000 nM in experiment [4]; ≤ 1000 nM in experiment [5]; > 10000 nM in experiment [6].
